Experimental data reported in PMC11012289, “The Discovery of New Inhibitors of Insulin-Regulated Aminopeptidase by a High-Throughput Screening of 400,000 Drug-like Compounds” (International Journal of Molecular Sciences, 2024).

Columns and labels:
[1] = biological target: T1, IRAP (Homo sapiens, UniProt Q9UIQ6); experiment: Primary fluorescence IRAP assay (L-Leucine-7-amido-4-methylcoumarin cleavage); assay type: biochemical; details: for IC50: 37.5 µM L-Leucine-7-amido-4-methylcoumarin, 60 min RT, dose-response 20 µM-27.4 nM, read-out: Fluorescence IC50; for LipE: calculated from (pIC50Fluorescence − LogD)
T1 construct: The screen was performed with the soluble truncated IRAP enzyme; made in house
Source text: The primary biochemical assay was developed to measure the enzymatic activity of IRAP.
To ensure biochemically sound, optimal, robust, and affordable assay conditions for large-scale screening, several factors need to be considered. […] For both primary fluorescence and orthogonal absorbance assays, non-binding 1536-well assay plates were used, and 0.05% BSA was included in the assay buffer to minimize the issues associated with protein sticking to plastics. The substrate Km values were determined in two separate experiments using two different batches of IRAP protein. For this, the IRAP progress curve was monitored every 5 min for 2 h using an Envision multimode plate reader (PerkinElmer, Waltham, MA, USA).
First, 10 nL of test compounds (4 mM) or 100% DMSO was dispensed into the 1536-well assay plates using an Echo acoustic liquid handler (Beckman Coulter, Brea, CA, USA). Then, 2 μL of protein working solution (5 × 10^−4 mg/mL) was dispensed to the negative control (min effect) and compound wells (final well concentration 2.5 × 10^−4 mg/mL) using a Certus Flex liquid dispenser (Fritz Gyger AG, Thun, Switzerland) and 2 μL assay buffer to the positive control wells (max effect) using a FLEXdrop (PerkinElmer, Waltham, MA, USA).
Figure S9. Reference compounds in Fluorescence IRAP assay with different end volumes in 1536-well format.
mg/ml) and 2 or 4 µL L -Leucine-7-amido-4-methylcoumarin (f.a.c.
Plates were measured on the Envision every 10 minutes for 140 minutes (data
shown up to 2 hours). %Effect was calculated using no protein as MAX effect (assay buffer was added instead of IRAP).

[2] = biological target: T1, IRAP; experiment: Orthogonal absorbance IRAP assay (L-Leucine para-nitroanilide cleavage); assay type: biochemical; details: 1 mM L-Leucine p-Nitroanilide, 120 min RT; read-out: Absorbance pIC50 (converted)
Source text: The primary biochemical assay was developed to measure the enzymatic activity of IRAP. […] To establish an orthogonal assay, an alternative L-Leucine para-nitroanilide substrate was used, which IRAP turns over to L-Leucine and para-nitroaniline and is measurable by absorbance at 405 nm (Supplementary Figure S2B).
To ensure biochemically sound, optimal, robust, and affordable assay conditions for large-scale screening, several factors need to be considered. These include the final concentration of substrates, based on the determined substrate Km value; the assay kinetics and reaction linearity; achieving a minimal, rate limiting protein concentration; identifying optimal buffer additives and concentrations; the choice of assay plate type; the final assay volume per well; the stability of reagents; the magnitude and variance of the signal; and the potency and rank order of reference compounds. For both primary fluorescence and orthogonal absorbance assays, non-binding 1536-well assay plates were used, and 0.05% BSA was included in the assay buffer to minimize the issues associated with protein sticking to plastics. The substrate Km values were determined in two separate experiments using two different batches of IRAP protein. For this, the IRAP progress curve was monitored every 5 min for 2 h using an Envision multimode plate reader (PerkinElmer, Waltham, MA, USA). […] To evaluate if using substrate concentrations close to the determined Km values results in sufficient dynamic range within the linear range of the enzymatic reaction, Z′ and S/B were calculated for multiple time points up to 2.5 h in the presence and absence of reference compounds in both assays. The primary fluorescence assay reached an optimal Z′-value after 1 h when using 37.5 μM substrate (Supplementary Figure S5). For the absorbance, 2 h was required for the enzyme reaction time; however, using ~0.4 mM substrate was associated with increased assay variation and a poor Z′ (Supplementary Figure S6).
The orthogonal assay was performed in a black non-binding 1536-well plate (Corning 3728) and sealed with universal lids (Corning 3098). First, 20 nL of test compounds (4 mM) or 100% DMSO was dispensed into the 1536-well assay plates using an Echo acoustic liquid handler (Beckman Coulter). Then, 4 μL of protein working solution (5 × 10^−4 mg/mL) was dispensed to the negative control (min effect) and compound wells (final well concentration 2.5 × 10^−4 mg/mL) using the Certus Flex liquid dispenser (Fritz Gyger AG) and 4 μL assay buffer to the positive control wells (max effect) using the FLEXdrop (PerkinElmer). Next, 4 μL of 2 mM substrate working solution was dispensed into all wells using the FLEXdrop (final well concentration 1 mM). The assay plates were then centrifuged at 187.5× g for 30 s, incubated in the dark at RT for 120 min, and finally read on an Envision plate reader (PerkinElmer) (absorbance at 405 nm, 10 flashes per second). During the dose–response curve analysis in the orthogonal assay, 80 nL of compound (range 2.00 × 10^−3 M–2.74 × 10^−6 M) or 100% DMSO was dispensed into the assay plates using an Echo acoustic liquid handler (Beckman Coulter) with final well concentration range of 20 μM–27.4 nM compound and 1% DMSO.

[3] = biological target: T1, IRAP; experiment: Deselection fluorescence IRAP assay with 10 µM zinc; assay type: biochemical; details: 10 µM ZnSO4 in assay buffer; read-out: Fluorescence + Zn pIC50 (converted)
Experimental: To prepare the assay buffer (50 mM Tris-HCl pH 7.4, 150 mM NaCl, 0.1 mM PMSF, 0.05% BSA) of the primary and orthogonal assays, 1 M Tris-HCl was prepared by dissolving 60.57 g Trizma-base (Mw 121.14 g/mol) (Sigma 93362-250G) in 500 mL MQ water, and the pH was adjusted to 7.4 using 4 M HCl. The solution was filtered with a 0.45 μm filter and stored at room temperature (RT). Then, 2 M NaCl stock was prepared by dissolving 29.22 g NaCl (Mw 58.44 g/mol) (Sigma S7653-250G) in 250 mL MQ water. The solution was filtered with a 0.45 μm filter and stored at RT. Next, 100 mM Phenylmethanesulfonylfluoride (PMSF) stock was prepared by dissolving 1 g PMSF (Mw 174.19 g/mol) (Sigma 78830-1G) in 57.4 mL isopropanol (Sigma I9516-500ML) and stored at 4 °C. A 10% Bovine Serum Albumin (BSA) stock solution was prepared by dissolving 2 g BSA (Mw 66.5 kDa) (Sigma A7030-50G), which was dissolved in 20 mL MQ water. The solution was filtered with a 0.45 μm filter, aliquoted, and stored at −20 °C. For the deselection assay buffer (50 mM Tris-HCl pH 7.4, 150 mM NaCl, 0.1 mM PMSF, 0.05% BSA, 10 μM ZnSO4), 1 mM ZnSO4 solution was prepared by dissolving 28.8 mg ZnSO4 (Mw 287.56 g/mol) (Sigma Z0251-100G) in 100 mL MQ water. The solution was filtered with a 0.45 μm filter and stored at RT. For the TSA assay buffer (50 mM Tris HCL, 150 mM NaCl, pH 7.4), stocks of 1 M Tris HCL and 2 M NaCl were prepared as described above.

[4] = biological target: T1, IRAP; experiment: Thermal shift (TSA) IRAP assay; assay type: binding; details: screening hits at 30 µM, 1% DMSO
Source text: The Thermal shift assay (TSA) is a biophysical technique measuring protein thermal stability. The assay relies on a fluorescent dye that is quenched in an aqueous environment but fluoresces when de-solvated in non-polar environments, such as the hydrophobic pockets of proteins. The target protein is mixed with the dye and heated gradually until it becomes completely denatured; as it unfolds or melts, the dye binds to newly exposed hydrophobic regions of the protein, resulting in a significant increase in fluorescence emission detected by a PCR system. The melting temperature (Tm) is calculated from the protein melt curve, and changes in Tm (known as ΔTm) are correlated with changes in protein stability and ligand binding. […] For the TSA assay, vehicle (DMSO) or compound was dispensed into MicroAmp Endura optical qPCR plates at the desired volume using an Echo acoustic liquid handler. […] The plates were then centrifuged for 10 s at 1000 rpm and sealed with Clear PCR-compatible plate seals.

[5] = set-up: method as in ELF screening history; details: ref ELF screening history, cited from earlier work; for Enzyme Active: number of ELF enzyme screens in which the compound was active; for Targets active: number of ELF screens in which the compound was active; for Enzyme Active %: share of ELF enzyme targets screened; for Targets Active %: share of all ELF targets screened

T1 sequence (Q9UIQ6 155-1025 limits assumed): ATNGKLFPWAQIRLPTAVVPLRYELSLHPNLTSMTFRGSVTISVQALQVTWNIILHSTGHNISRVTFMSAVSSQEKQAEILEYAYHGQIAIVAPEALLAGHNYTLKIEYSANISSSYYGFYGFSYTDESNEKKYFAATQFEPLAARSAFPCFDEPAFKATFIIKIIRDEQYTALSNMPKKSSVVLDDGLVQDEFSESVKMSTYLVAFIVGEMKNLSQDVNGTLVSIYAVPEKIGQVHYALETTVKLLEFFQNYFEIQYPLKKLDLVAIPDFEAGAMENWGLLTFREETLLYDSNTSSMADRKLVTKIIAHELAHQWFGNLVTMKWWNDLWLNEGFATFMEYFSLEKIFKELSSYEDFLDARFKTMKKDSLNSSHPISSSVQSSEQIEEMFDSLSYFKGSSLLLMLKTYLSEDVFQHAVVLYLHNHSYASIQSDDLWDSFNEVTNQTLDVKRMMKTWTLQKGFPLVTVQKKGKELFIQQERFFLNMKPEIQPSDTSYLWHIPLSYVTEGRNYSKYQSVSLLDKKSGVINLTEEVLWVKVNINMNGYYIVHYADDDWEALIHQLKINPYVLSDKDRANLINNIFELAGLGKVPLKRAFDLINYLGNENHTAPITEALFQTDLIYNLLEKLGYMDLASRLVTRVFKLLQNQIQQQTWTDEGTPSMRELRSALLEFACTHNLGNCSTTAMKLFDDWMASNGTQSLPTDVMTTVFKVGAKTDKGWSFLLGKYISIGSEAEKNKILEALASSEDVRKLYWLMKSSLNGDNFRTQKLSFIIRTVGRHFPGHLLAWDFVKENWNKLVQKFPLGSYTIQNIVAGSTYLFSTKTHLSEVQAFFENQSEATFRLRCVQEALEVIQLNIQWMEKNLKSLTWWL

IC50 [1] [nM]	LipE [1]	IC50 [2] [nM]	IC50 [3] [nM]	ΔTm at 30 µM [4] [°C]	Structure (SMILES)	Enzyme Active [5]	Targets active [5]	Enzyme Active % [5] [%]	Targets Active % [5] [%]
1260	3.57	5750	1230	3.55	CC(C)C(CS(=O)(=O)N1CCC(c2ccc(F)cc2Cl)C1)C(=O)NO (stereo not drawn) [QHL6]	3	5	3.2	3.4
1290	2.10	> 20000	1380	0.3	Fc1ccc(F)c(Cn2ccc3ncc(N4CCNCC4)cc32)c1Cl [QHL7]	8	9	8.6	6.0
1320	3.94	3550	1290	4.61	O=C(NO)C(CS(=O)(=O)N1CCC(c2ccc(F)cc2Cl)CC1)C1CCOCC1 (stereo not drawn) [QHL8]	4	6	4.3	4.0
1510	2.98	> 20000	1580	0.15	COc1cc(C(=O)N2CCc3n[nH]c(-c4cccs4)c3CC2)on1 [QHL9]	2	4	4.9	5.3
1660	2.57	3890	1700	1.92	NCC[C@H]1CCCCN1C(=O)Cn1nc(-c2ccc(Cl)cc2)c2c1CCCC2 [QHL11]	4	5	4.2	3.4
1910	1.68	13800	1950	-0.15	Cc1cccc(Cl)c1CNc1ncnc2ncn(C)c12 [QHL12]	3	3	3.6	2.1
2140	2.39	16200	2000	-1.91	COc1ccc([C@@H]2c3nnnn3CCN2CCCN(C)c2ccccc2)c(C)c1 [QHL13]	12	19	14.1	13.2
2240	2.42	> 20000	2340	0.15	O=C(COCc1ccccc1)N1CCc2n[nH]c(-c3cccs3)c2CC1 [QHL14]	3	5	7.3	6.6
2400	3.54	> 20000	2570	-0.89	O=c1cc(N2CCCC2)nc2n(Cc3cc(Cl)ccc3Cl)ccn12 [QHL15]	6	10	7.1	7.1
2630	3.14	3800	2820	2.07	CC(C)[C@@H](CS(=O)(=O)N(C)CC1CCc2ccccc2C1)C(=O)NO (stereo partly drawn) [QHL16]	4	4	5.1	2.8
2630	2.19	> 20000	3240	0.3	Cc1cc(NC(=O)Cn2cnc3sc4c(c3c2=O)CCCC4)n(-c2ccccc2)n1 [QHL17]	4	5	4.2	3.3
2820	1.83	16200	2950	0.3	CC(C)c1cc(C(=O)N2CCc3n[nH]c(-c4cccs4)c3CC2)[nH]n1 [QHL19]	4	6	9.5	7.9
2820	2.71	5750	3160	4.15	CC(C)[C@@H](CS(=O)(=O)N(C)Cc1sc2ccccc2c1Cl)C(=O)NO [QHL20]	1	3	1.9	2.9
